# Source: article PMC3064523 (Clinical cancer research : an official journal of the …, 2010)
# Where “and” joins values, the source holds several entries; their conditions need not be identical. Identical values can stand only once. Entries after “also recorded” stand apart in the source; their conditions may differ. Like-named read-outs stand apart in the source and are kept apart here.
# Assays:
# [1] = system: Histone H4 acetylation in PBMCs; assay: PBMC histone H4 acetylation, sandwich ELISA; assay type: in vivo, human; conditions: steady state trough
# [2] = system: Histone H3 acetylation in PBMCs; assay: PBMC histone H3 acetylation, sandwich ELISA; assay type: in vivo, human; conditions: for Post-VPA/Pre-VPA AcH3: steady state trough
# [3] = system: children with newly diagnosed high-grade or brainstem gliomas; assay: Ongoing phase II trial of VPA and radiation; assay type: in vivo, human; conditions: seven children; VPA trough concentrations of 85–115 mcg/ml
# [4] = system: human cancers; conditions: pre-clinical studies; cited from earlier work
# [5] = assay type: in vivo, human; conditions: for Total VPA / Free VPA: at PBMC sampling; for CL/F: CL/F (apparent total body clearance) Median +/− SD; for half-life: t1/2 Median +/− SD
# [6] = system: children with refractory solid or CNS tumors; assay: Phase 1 trial: dose-limiting and non-dose-limiting toxicities of oral VPA; assay type: in vivo, human; conditions: for Description of DLTs: cycle 1
# [7] = system: PBMC histone acetylation (AcH3 and AcH4); conditions: 4 hours after a dose of VPA; cited from earlier work
# [8] = system: histone acetylation; conditions: at the time of maximal drug concentration; cited from earlier work
# [9] = human, plasma, po, Steady State, Free VPA (n = 4), oral
# [10] = human, plasma, po, Steady State, Total VPA (n = 4), oral
# [11] = Cycle 1 (16 total cycle), 16 evaluable patients
# [12] = Cycle 2 to 7 (15 total cycles), 16 evaluable patients
compound,measurement,setting,value
"CCCC(CCC)C(=O)O [VPA, Valproic acid]",Post-VPA/Pre-VPA AcH4,[1]; Patient 712904,0.75
same,Post-VPA/Pre-VPA AcH4,[1]; Patient 714036,0.87
same,Post-VPA/Pre-VPA AcH4,[1]; Patient 734297,1.11
same,Post-VPA/Pre-VPA AcH4,[1]; Patient 747001,0.47
same,Post-VPA/Pre-VPA AcH4,[1]; Patient 757318,1.55
same,Post-VPA/Pre-VPA AcH4,[1]; Patient 769495,2.45
same,Post-VPA/Pre-VPA AcH4,[1]; Patient 770113,0.70
same,Patients with reduced post-treatment AcH3 and AcH4 levels in PBMCs,[2]; 10 patients studied,Five
same,Patients with increased AcH3 and AcH4 levels in PBMCs,"[2]; 10 patients studied, at trough VPA exposure",Five and 5 out of 10
same,Post-VPA/Pre-VPA AcH3,[2]; Patient 712904,0.75
same,Post-VPA/Pre-VPA AcH3,[2]; Patient 714036,0.93
same,Post-VPA/Pre-VPA AcH3,[2]; Patient 734297,1.51
same,Post-VPA/Pre-VPA AcH3,[2]; Patient 747001,0.43
same,Post-VPA/Pre-VPA AcH3,[2]; Patient 757318,1.44
same,Post-VPA/Pre-VPA AcH3,[2]; Patient 769495,1.38
same,Post-VPA/Pre-VPA AcH3,[2]; Patient 770113,0.90
same,Patients with increased PBMC histone acetylation,"[2]; of patients studied, steady state, H3 and H4",50%
same,Toxicity of radiation and VPA,[3],without encountering neuro-toxicities or other dose-limiting toxicities
same,Threshold VPA concentration associated with anti-tumor activity,[4],exceeded 100 mcg/ml
same,Total VPA,[5]; Patient 536584,81.0 µg/mL
same,Total VPA,[5]; Patient 712904,100.9 µg/mL
same,Total VPA,[5]; Patient 714036,109.0 µg/mL
same,Total VPA,[5]; Patient 734297,78.2 µg/mL
same,Free VPA,[5]; Patient 747001,19.1 µg/mL
same,Total VPA,[5]; Patient 747001,90.9 µg/mL
same,Total VPA,[5]; Patient 752294,134.1 µg/mL
same,Free VPA,[5]; Patient 757318,36.6 µg/mL
same,Total VPA,[5]; Patient 757318,90.1 µg/mL
same,Free VPA,[5]; Patient 769495,8.1 µg/mL
same,Total VPA,[5]; Patient 769495,77.0 µg/mL
same,Free VPA,[5]; Patient 770059,11 µg/mL
same,Total VPA,[5]; Patient 770059,105.7 µg/mL
same,Free VPA,[5]; Patient 770113,8 µg/mL
same,Total VPA,[5]; Patient 770113,55.7 µg/mL
same,Mean steady state VPA dose,"[5]; VPA concentration 75–100 mcg/ml, syrup and capsules (n = 2)",12.5 ± 3.5 mg/kg
same,Mean steady state VPA dose,"[5]; VPA concentration 75–100 mcg/ml, syrup only (n = 4)",17.5 ± 2.9 mg/kg
same,Mean steady state VPA dose,"[5]; VPA concentrations 100–150 mcg/ml, syrup and capsules (n = 8)",41.3 ± 20.7 mg/kg
same,Mean steady state VPA dose,"[5]; VPA concentrations 100–150 mcg/ml, syrup only (n = 10)",36.0 ± 27.7 mg/kg
same,concentration at 9 weeks,"[5]; human, plasma, oral",123 µg/mL
same,concentration at 3 days,"[5]; human, plasma, oral, 25 mg/kg/day",172 µg/mL
same,Vd/F,"[5]; human, plasma, po, 25 mg/kg/day",0.12 L/kg
same,CL/F,"[5]; human, plasma, po, 25 mg/kg/day, First dose, Total VPA (n = 4), oral",0.2 mL/min/kg
same,CL/F,[5]; [9],0.87 mL/min/kg
same,CL/F,[5]; [10],0.133 mL/min/kg
same,half-life,[5]; [9],6.5 h
same,half-life,[5]; [10],11.4 h
same,Mean final dose of VPA,"[5]; starting dose 25 mg/kg/day divided b.i.d., trough above 100 mcg/ml",exceeded 50 mg/kg/day
same,Number of dose escalations to achieve targeted concentrations (mean ± SD),[5]; t.i.d. dosing,1.3 ± 0.5
same,Mean final dose of VPA,"[5]; t.i.d., starting dose 15 mg/kg/day",less than 20 mg/kg/day
same,Free VPA concentration as % of total concentration (mean +/− SD),"[5]; total VPA concentration exceeded 125 mcg/ml, 8 measurements",44.9 +/− 15.8%
same,Free VPA concentration as % of total concentration (mean +/− SD),"[5]; total VPA concentrations below 100 mcg/ml, 32 measurements",16.8 +/− 6.9%
same,Free VPA concentration as % of total concentration (mean +/− SD),"[5]; total VPA concentrations between 100–125 mcg/ml, 17 measurements",21.3 +/− 11.5%
same,Fraction of free VPA,[5]; until total VPA concentrations exceeded 125 mcg/ml,less than 0.25
same,Description of DLTs,"[6]; Cohort 0 (trough VPA level 75–100 mcg/ml), TID dosing",None
same,Description of DLTs,"[6]; Cohort 1 (trough VPA level 100–150 mcg/ml), BID dosing",grade 3 somnolence; also recorded: Somnolence (1)
same,Description of DLTs,"[6]; Cohort 1 (trough VPA level 100–150 mcg/ml), TID dosing",grade-3 somnolence and grade-5 hemorrhage/hemothorax; also recorded: Somnolence (1) Pulmonary hemorrhage (1) Dyspnea (1) Hypoxia (1) Hypotension (1) Hypocalcemia (1)
same,"Anemia, non-dose limiting, maximum Grade 1",[6]; [11],3
same,"Anemia, non-dose limiting, maximum Grade 2",[6]; [11],2
same,"Anemia, non-dose limiting, maximum Grade 4",[6]; [11],1
same,"Dizziness, non-dose limiting, maximum Grade 1",[6]; [11],4
same,"Fatigue, non-dose limiting, maximum Grade 1",[6]; [11],3
same,"Fatigue, non-dose limiting, maximum Grade 2",[6]; [11],2
same,"Headache, non-dose limiting, maximum Grade 1",[6]; [11],1
same,"Headache, non-dose limiting, maximum Grade 2",[6]; [11],1
same,"Hypoalbuminemia, non-dose limiting, maximum Grade 1",[6]; [11],1
same,"Hypoalbuminemia, non-dose limiting, maximum Grade 2",[6]; [11],2
same,"Leukopenia, non-dose limiting, maximum Grade 1",[6]; [11],5
same,"Leukopenia, non-dose limiting, maximum Grade 2",[6]; [11],1
same,"Lymphopenia, non-dose limiting, maximum Grade 1",[6]; [11],4
same,"Lymphopenia, non-dose limiting, maximum Grade 2",[6]; [11],1
same,"Lymphopenia, non-dose limiting, maximum Grade 4",[6]; [11],1
same,"Nausea, non-dose limiting, maximum Grade 1",[6]; [11],1
same,"Nausea, non-dose limiting, maximum Grade 3",[6]; [11],1
same,"Neutropenia, non-dose limiting, maximum Grade 1",[6]; [11],1
same,"Somnolence, non-dose limiting, maximum Grade 2",[6]; [11],1
same,"Thrombocytopenia, non-dose limiting, maximum Grade 1",[6]; [11],6
same,"Thrombocytopenia, non-dose limiting, maximum Grade 2",[6]; [11],2
same,"Vomiting, non-dose limiting, maximum Grade 2",[6]; [11],2
same,"Anemia, non-dose limiting, maximum Grade 1",[6]; [12],2
same,"Anemia, non-dose limiting, maximum Grade 2",[6]; [12],1
same,"Dizziness, non-dose limiting, maximum Grade 1",[6]; [12],1
same,"Fatigue, non-dose limiting, maximum Grade 2",[6]; [12],1
same,"Headache, non-dose limiting, maximum Grade 2",[6]; [12],1
same,"Leukopenia, non-dose limiting, maximum Grade 2",[6]; [12],1
same,"Leukopenia, non-dose limiting, maximum Grade 3",[6]; [12],1
same,"Lymphopenia, non-dose limiting, maximum Grade 1",[6]; [12],2
same,"Lymphopenia, non-dose limiting, maximum Grade 3",[6]; [12],1
same,"Neutropenia, non-dose limiting, maximum Grade 2",[6]; [12],1
same,"Neutropenia, non-dose limiting, maximum Grade 3",[6]; [12],1
same,"Neutropenia, non-dose limiting, maximum Grade 4",[6]; [12],1
same,"Thrombocytopenia, non-dose limiting, maximum Grade 1",[6]; [12],2
same,"Thrombocytopenia, non-dose limiting, maximum Grade 4",[6]; [12],1
same,Increases in AcH3 and AcH4 in PBMC,[7],observed in all patients
C/C=C1\NC(=O)[C@H]2CSSCC/C=C/[C@H](CC(=O)N[C@H](C(C)C)C(=O)N2)OC(=O)[C@H](C(C)C)NC1=O [depsipeptide],Histone hyper-acetylation,[8],histone hyper-acetylation in all patients
